The values below come from PMC12040169 (PLOS Biology, 2025).

This data set in a line: in vitro. The settings on record: human, hela cells, % viability.

For orientation: viability means a read-out of living cells in per cent, often relative to untreated cells. `CCC(=O)N1C[C@@H](N(C)C)[C@H](c2cn(C)c3ccccc23)C1` [CBK285008]: the viability at 28.5 h, 10 µM came to 91.3%.

As to `COCC(C)NC(=O)Cn1cccc2cc(C(F)F)nc1-2` (stereo not drawn) [CBK285011], the viability at 28.5 h, 10 µM was found to be 104%.

`CC(C)N(C(=O)Cn1cccc2cc(C(F)F)nc1-2)C(C)C` [CBK285012]: the viability at 28.5 h, 10 µM is 85.5%.

Consider `O=C(Cn1c(C2CCNCC2)cc2cccnc21)N1CCCC1` [CBK285013], for which the viability at 28.5 h, 10 µM came to 96.3%.

`O=C(Cn1c(C2CCCNC2)cc2cccnc21)N1CCCCCC1` (stereo not drawn) [CBK285014]: the viability at 28.5 h, 10 µM was 86.3%.

For `Nc1cc2ccccc2nc1C1CCN(C(=O)C2CC=CCC2)CC1` (stereo not drawn) [CBK285016], the viability at 28.5 h, 10 µM came to 88.9%.

`Cc1nccn1CC1(O)CCN(Cc2cn(C)c3ccccc23)CC1` [CBK285017]: the viability at 28.5 h, 10 µM stood at 102%.

On to `Cn1nc(C2CCN(C(=O)c3ccccc3F)CC2)c2cccnc21` [CBK285019], for which the viability at 28.5 h, 10 µM was 106%.

Turning to `CC1CCN(Cc2c(C3CCNCC3)[nH]c3ncccc23)CC1` [CBK285022], the viability at 28.5 h, 10 µM is 91.7%.

`CN1CCN(C(=O)CCn2c(C(F)F)cc3cccnc32)CC1` [CBK285023]: the viability at 28.5 h, 10 µM was found to be 101%.

`CC1CCCCN1C(=O)CCn1c(C(F)F)cc2cccnc21` (stereo not drawn) [CBK285024]: the viability at 28.5 h, 10 µM worked out at 89.5%.

As for `O=C(CCn1c(C(F)F)cc2cccnc21)NCc1ccncc1` [CBK285027], the viability at 28.5 h, 10 µM turned out to be 103%.

For `CC(CC(=O)N1CCC(c2cc3cccnc3[nH]2)CC1)n1ccnc1` (stereo not drawn) [CBK285028], the viability at 28.5 h, 10 µM was found to be 107%.

Turning to `Cc1[nH]ncc1CN1CCCC(c2cc3ccccc3cn2)C1` (stereo not drawn) [CBK285029], the viability at 28.5 h, 10 µM was found to be 108%.

Regarding `CC(=O)NC(c1ccccn1)C1CCCN(C(=O)C2CCCCC2)C1` (stereo not drawn) [CBK285031], the viability at 28.5 h, 10 µM was determined as 109%.

In the case of `CC(=O)NC(c1ccccn1)C1CCCN(C(=O)C2CC2C)C1` (stereo not drawn) [CBK285032], the viability at 28.5 h, 10 µM amounted to 84.2%.

In the case of `CC(CC(=O)N1CCCC(c2cc3cccnc3[nH]2)C1)n1ccnc1` (stereo not drawn) [CBK285034], the viability at 28.5 h, 10 µM turned out to be 105%.

In the case of `CC(C)(C)C(=O)N1CCC(c2nc3ccccc3cc2N)CC1` [CBK285039], the viability at 28.5 h, 10 µM turned out to be 101%.

As to `Cc1nn(C)cc1CN1CCCC(c2cc3ccccc3cn2)C1` (stereo not drawn) [CBK285041], the viability at 28.5 h, 10 µM is 108%.

For the molecule `Cc1csc(C(Cc2ccsc2)NC(=O)c2c(C)noc2C)n1` (stereo not drawn) [CBK285045], the viability at 28.5 h, 10 µM came to 102%.

On to `Cc1csc(C(Cc2ccsc2)NC(=O)CN2CCCC2=O)n1` (stereo not drawn) [CBK285046], for which the viability at 28.5 h, 10 µM came out at 81.9%.

With `Cc1csc(C(Cc2cccs2)NCC2CCOC2)n1` (stereo not drawn) [CBK285051], the viability at 28.5 h, 10 µM worked out at 110%.

Consider `O=C(NC(Cc1cccs1)c1nccs1)c1cc[nH]n1` (stereo not drawn) [CBK285052], for which the viability at 28.5 h, 10 µM stood at 87.4%.

In the case of `O=C(NC(Cc1cccs1)c1nccs1)C1CCOC1` (stereo not drawn) [CBK285054], the viability at 28.5 h, 10 µM came out at 80.6%.

With `Cc1csc(C(Cc2cccs2)NC(=O)C2CCC(=O)N2)n1` (stereo not drawn) [CBK285056], the viability at 28.5 h, 10 µM stood at 104%.

For the molecule `CC(C)OC(=O)Cn1c(C2CCCNC2)cc2cccnc21` (stereo not drawn) [CBK285058], the viability at 28.5 h, 10 µM is 100%.

`O=C(Cn1c(C2CCCNC2)cc2cccnc21)NC1CCCC1` (stereo not drawn) [CBK285059]: the viability at 28.5 h, 10 µM turned out to be 97.5%.

For the molecule `O=C(CCn1c(C(F)F)cc2cccnc21)NCc1cccnc1` [CBK285066], the viability at 28.5 h, 10 µM was determined as 91.9%.

Consider `CC(NC(=O)CCn1c(C(F)F)cc2cccnc21)c1ccncc1` (stereo not drawn) [CBK285069], for which the viability at 28.5 h, 10 µM came out at 91.6%.

Consider `Cc1cc(NC(=O)CCn2c(C(F)F)cc3cccnc32)nn1C` [CBK285071], for which the viability at 28.5 h, 10 µM was 90.2%.

Turning to `CCn1nc(NC(=O)CCn2c(C(F)F)cc3cccnc32)cc1C` [CBK285072], the viability at 28.5 h, 10 µM amounted to 83.8%.

In the case of `Cn1nccc1C(=O)N[C@H]1CCC[C@@H](c2c[nH]c3ccccc23)C1` [CBK285073], the viability at 28.5 h, 10 µM was 93.6%.

`Cc1cc(C)n(CC(=O)N2CCCC2c2cc3cccnc3[nH]2)n1` (stereo not drawn) [CBK285074]: the viability at 28.5 h, 10 µM worked out at 97.1%.

Regarding `CC(C)OC(=O)Cn1c(C2CCNCC2)cc2cccnc21` [CBK285075], the viability at 28.5 h, 10 µM was found to be 99.9%.

With `COc1cccc(Cn2c(C3CCNCC3)cc3cccnc32)c1` [CBK285076], the viability at 28.5 h, 10 µM was found to be 91.5%.

As to `COc1ccc(Cn2c(C3CCNCC3)cc3cccnc32)cc1` [CBK285077], the viability at 28.5 h, 10 µM is 96.1%.

On to `CC1CCCN(Cc2c(C3CCNCC3)[nH]c3ncccc23)C1` (stereo not drawn) [CBK285078], for which the viability at 28.5 h, 10 µM worked out at 78.5%.

As for `CN(Cc1c(C2CCNCC2)[nH]c2ncccc12)C1CCCCC1` [CBK285079], the viability at 28.5 h, 10 µM came out at 93.3%.

`O=C(c1cccc(F)c1)N1CCCC1c1cc2cccnc2[nH]1` (stereo not drawn) [CBK285081]: the viability at 28.5 h, 10 µM was determined as 93.1%.

Take `COc1cccc(C(=O)N2CCCC2c2cc3cccnc3[nH]2)c1` (stereo not drawn) [CBK285082]: the viability at 28.5 h, 10 µM is 96.4%.

As for `CN(Cc1ccccc1)Cc1c(C2CCNCC2)[nH]c2ncccc12` [CBK285083], the viability at 28.5 h, 10 µM is 96%.

For `CC1CCCN(Cc2c(C3CCNCC3)[nH]c3ncccc23)C1C` (stereo not drawn) [CBK285084], the viability at 28.5 h, 10 µM worked out at 89.1%.

`CCC(C)NC(=O)Cn1cccc2cc(C3CCCNC3)nc1-2` (stereo not drawn) [CBK285087]: the viability at 28.5 h, 10 µM was determined as 98.2%.

For the molecule `O=C(Cn1cccc2cc(C3CCCNC3)nc1-2)N1CCCCCC1` (stereo not drawn) [CBK285088], the viability at 28.5 h, 10 µM stood at 93.2%.

`Cc1csc([C@H]2Cc3ccsc3[C@@H](C3CCOC3)N2)n1` (stereo partly drawn) [CBK285089]: the viability at 28.5 h, 10 µM is 102%.

For the molecule `CC1CC1C(=O)N1CCC(c2nc3ccccc3cc2N)CC1` (stereo not drawn) [CBK285090], the viability at 28.5 h, 10 µM came to 98.8%.

As for `Cn1nc(C2CCN(Cc3ccccc3)CC2)c2cccnc21` [CBK285095], the viability at 28.5 h, 10 µM stood at 94.9%.

Take `O=C(NC(Cc1ccsc1)c1nccs1)C1CC2C=CC1O2` (stereo not drawn) [CBK285096]: the viability at 28.5 h, 10 µM was found to be 91.9%.

As for `Cc1csc(C(Cc2ccsc2)NC(=O)Cc2ccccn2)n1` (stereo not drawn) [CBK285097], the viability at 28.5 h, 10 µM was 94.9%.

As to `Cc1csc(C(Cc2ccsc2)NC(=O)c2scnc2C)n1` (stereo not drawn) [CBK285098], the viability at 28.5 h, 10 µM amounted to 106%.

Turning to `Cc1csc(C(Cc2ccsc2)NC(=O)CCc2ccno2)n1` (stereo not drawn) [CBK285099], the viability at 28.5 h, 10 µM was determined as 100%.

For `Cc1noc(C)c1C(=O)NC(Cc1ccsc1)c1cccnc1` (stereo not drawn) [CBK285100], the viability at 28.5 h, 10 µM is 90.3%.

Regarding `CC(=O)NC(c1ccccn1)C1CCCN(C(=O)C(C)(C)C)C1` (stereo not drawn) [CBK285101], the viability at 28.5 h, 10 µM was 91.6%.

Take `Cc1ccsc1C(=O)N1CCC(c2nn(C)c3ncccc23)CC1` [CBK285102]: the viability at 28.5 h, 10 µM worked out at 96.6%.

In the case of `CC(=O)N1Cc2cc(C)ccc2OC2(CCCN(CC3CC3)C2)C1` (stereo not drawn) [CBK285104], the viability at 28.5 h, 10 µM came out at 88.7%.

`Cc1noc(C)c1C(=O)N1CCCCCC1c1nn(C)cc1Cl` (stereo not drawn) [CBK285106]: the viability at 28.5 h, 10 µM came out at 101%.

As to `Cc1csc(C(Cc2ccsc2)NC(=O)C2CC3C=CC2O3)n1` (stereo not drawn) [CBK285108], the viability at 28.5 h, 10 µM came to 102%.

In the case of `CC1CCCN(Cc2c(C3CCCNC3)[nH]c3ncccc23)C1` (stereo not drawn) [CBK285112], the viability at 28.5 h, 10 µM worked out at 70.3%.

As to `Cc1csc(C(Cc2ccsc2)NC(=O)Cn2ccnc2)n1` (stereo not drawn) [CBK285113], the viability at 28.5 h, 10 µM turned out to be 106%.

On to `Cn1cc(C(=O)NC(Cc2ccsc2)c2cccnc2)cn1` (stereo not drawn) [CBK285118], for which the viability at 28.5 h, 10 µM stood at 99.9%.
